One compound from paper PMC11763059, “GENI as an AMPK Activator Binds α and γ Subunits and Improves the Memory Dysfunction of Alzheimer’s Disease Mouse Models via Autophagy and Neuroprotection” (Antioxidants, 2025) can be followed below.

Test [1] has as its target T1, AMPK-WT (His-tagged AMPK containing α1β1γ1 protein) (Rattus norvegicus, UniProt P54645+P80385).
T1 construct: His (N); made in house
The test is described as follows: SPR analysis of binding to purified wild-type AMPK. How it is done: Mammalian AMPK subunits (His-α1, β1, and γ1) were cloned into a pET-3d vector, and protein expression and purification were similar to the literature.
SPR analysis was performed with a Biacore T200 instrument (GE Healthcare). Firstly, the purred His-tagged AMPK containing α1β1γ1 protein was captured onto an activated carboxymethylated 5 (CM5) chip using amine coupling to levels ranging from 4000 RU to 6000 RU. Secondly, GENI was dissolved in PBS-P buffer solution (0.05% (v/v) Tween 20 and PBS), and the concentration of GENI was 64 μM. […] The sample was filtered by pumping through a […] membrane. A gradient concentration of GENI was injected at a flow rate of 30 μL/min in a running buffer (0.05% (v/v) Tween 20 and PBS). The data were analyzed with Biacore evaluation software (T200 version 2.0) and fitted to the 1:1 Langmuir binding model, and the kinetic parameters were derived.
A general note: In SPR one partner is held on a chip, and binding of the other changes the refractive index at the surface.

In a further test the test system is PC12 cells. Nature of the test: Western blot of LC3 II/LC3 I in the autophagy flow assay. The format is cell-based. The settings on record: GENI group compared with the control group. How it is done: (§1) Western blot analysis for p-AMPK α, AMPK α, p-mTOR, mTOR, p-ULK1, ULK1, and LC3-I/II was conducted according to the information described in the materials and methods section of Supplementary Information.
1.3. Western blot analysis.
For PC12 cell samples, we seeded 2 × 10^6 PC12 cells in each 60 mm dish containing 5 mL of DMEM and incubated the dish for 24 h. For the dose-dependent experiment of GENI, GENI (1, 3 and 10 μM) was added to the dishes and incubated for a period of time (2 hours for p-AMPK α, AMPK α, 48 hours for p-mTOR, mTOR and p-ULK1, ULK1; 8 hours for LC3-I/II). Cells were then collected, lysed using RAPI lysis buffer and centrifuged. The supernatants of each group were used as protein samples. For the protein samples of autophagy flow assay, we seeded 2 × 10^6 PC12 cells in each 60 mm dish containing 5 mL of DMEM and incubated the dish for 24 h.
The GENI, rapamycin and inhibitors, such as chloroquine and 3-MA were added according to the method of autophagy flow assay. After treatment of 18 h, cells were then collected, lysed using RAPI lysis buffer and centrifuged. […] The protein concentration was measured with a BCA assay kit (Beijing Cowin Biotech Company, Beijing, China). […] Bands were quantitatively measured using ImageJ software (National Institutes of Health, Bethesda, MD, USA).
Background: A western blot detects proteins with antibodies after separation by electrophoresis.

The next test relates to natural aging AD mice. The test is described as follows: Immunohistochemistry and Western blot of brain in naturally aged AD mice. The format is in vivo. The settings on record: GENI 25 mg/kg, compared with aged group. How it is done:
Each group had 10 mice. GENI was dissolved in ultrapure water and administered by gavage, whereas Dor was dissolved in normal saline. The pH was adjusted to pH 5 with 0.1 M hydrochloric acid to the clarified solution and administered by intraperitoneal injection. The dosing experiment also lasted 10 weeks. Animal behavioral experiments and sampling at the end of the animal experiment were performed as described above.
Firstly, the three mice of each group were subjected to heart perfusion at the end of the animal experiment, and the whole brain was removed and placed in 15 mL of 4% paraformaldehyde and stored at 4 °C for 24 h. Secondly, we changed 4% paraformaldehyde into 15% sucrose solution and stored the solution at 4 °C for 24 h. We then changed the solution to 30% sucrose solution to dehydrate for 2 days. Thirdly, the mouse brain tissue was embedded in a cryo-embedding medium, and about 80 slices with a thickness of 20 μm were cut in the hippocampus using a cryostat (Thermal Fisher, Shanghai, China). The sections of mice in each group were immunohistochemically stained with primary antibodies, such as neuronal nuclear anti gen (NeuN), ionized calcium-binding adapter molecule 1 (Iba-1), inducible nitric oxide synthase (iNOS, pro-inflammatory factors), synaptophysin (Syp), and glial fibrillary acidic protein (GFAP), and secondary antibody. The product number and usage ratios of primary and secondary antibodies are detailed in Supplementary Table S4. Finally, the sections were observed under an upright two-photon confocal microscope (Olympus BX61, Tokyo, Japan) and recorded by a camera. The pictures were digitized with ImageJ software V1.8.0.112 (National Institutes of Health, Bethesda, MD, USA).
as §1
1.3. Western blot analysis. […]
The supernatants of each group were used as protein samples. For animal samples, an appropriate amount of tissue, such as cerebral cortex and hippocampus (50–100 mg), of each group was weighed, and we added lysis buffer with 1:9 ratios. After grinding and centrifuging, the supernatants of each group were used as protein samples. The protein concentration was measured with a BCA assay kit (Beijing Cowin Biotech Company, Beijing, China). Sodium dodecyl sulphate polyacrylamide gel electrophoresis (SDS-PAGE) was used to separate proteins (15 μg), which were transferred to PVDF membranes. The membrane was incubated with primary and secondary antibodies (Supplementary Table S5 for details). Antigens were visualised using a high-sensitivity chemiluminescence detection kit (Beijing Cowin Biotech Company, Beijing, China). Bands were quantitatively measured using ImageJ software (National Institutes of Health, Bethesda, MD, USA).

T1 sequence (P54645 13-559 limits assumed): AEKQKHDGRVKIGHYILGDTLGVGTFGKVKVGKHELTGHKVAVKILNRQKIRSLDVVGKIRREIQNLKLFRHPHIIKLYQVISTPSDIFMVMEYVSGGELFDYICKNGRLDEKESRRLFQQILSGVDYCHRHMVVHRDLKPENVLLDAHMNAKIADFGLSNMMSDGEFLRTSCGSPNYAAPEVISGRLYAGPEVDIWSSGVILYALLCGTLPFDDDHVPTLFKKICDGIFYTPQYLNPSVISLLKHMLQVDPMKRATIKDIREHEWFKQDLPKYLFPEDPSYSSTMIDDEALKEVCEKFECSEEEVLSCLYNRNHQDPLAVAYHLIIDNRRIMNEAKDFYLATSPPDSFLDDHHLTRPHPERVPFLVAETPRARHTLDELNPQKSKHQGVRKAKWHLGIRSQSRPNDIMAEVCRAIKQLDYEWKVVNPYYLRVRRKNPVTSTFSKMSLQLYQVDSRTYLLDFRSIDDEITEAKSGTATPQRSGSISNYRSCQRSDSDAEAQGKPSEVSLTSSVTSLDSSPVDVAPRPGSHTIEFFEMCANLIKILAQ
T1 sequence (P80386 whole entry partner): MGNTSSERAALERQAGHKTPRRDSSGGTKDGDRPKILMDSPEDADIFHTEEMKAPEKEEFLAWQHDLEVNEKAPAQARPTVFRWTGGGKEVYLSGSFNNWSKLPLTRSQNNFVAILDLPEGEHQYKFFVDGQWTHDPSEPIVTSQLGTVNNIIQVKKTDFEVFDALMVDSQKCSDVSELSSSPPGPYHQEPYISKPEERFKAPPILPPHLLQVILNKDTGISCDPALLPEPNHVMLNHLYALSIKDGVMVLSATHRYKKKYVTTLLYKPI
T1 sequence (P80385 whole entry): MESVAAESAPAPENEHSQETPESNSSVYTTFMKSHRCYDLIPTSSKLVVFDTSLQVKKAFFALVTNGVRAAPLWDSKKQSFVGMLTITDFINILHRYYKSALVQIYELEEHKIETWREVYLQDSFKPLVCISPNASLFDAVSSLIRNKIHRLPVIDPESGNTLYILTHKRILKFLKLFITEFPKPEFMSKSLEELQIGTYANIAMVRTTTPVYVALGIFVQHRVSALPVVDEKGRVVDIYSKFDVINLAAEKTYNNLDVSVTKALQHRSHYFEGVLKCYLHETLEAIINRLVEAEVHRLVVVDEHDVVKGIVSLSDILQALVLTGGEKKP

As to `CC(C)CCOC(=O)C1=CO[C@@H](O[C@@H]2O[C@H](CO)[C@@H](O)[C@H](O)[C@H]2O)C2C(CO)=CCC12` (stereo partly shown) [GENI, Geniposidic 4-isoamyl ester], in test [1] (1:1 Langmuir binding model), the Kd (in general, the free concentration of one partner at which half of the binding sites on the other are occupied at equilibrium, for simple one-to-one binding) was found to be 1070 nM. In test [1] (association rate, read-out: Ka), the kon was determined as 2320 M⁻¹ s⁻¹. Further, the “LC3 II at the protein level” value with PC12 cells is listed as “significantly increased”. Besides, the “APP and Tau of hippocampus CA, DG, and cerebral cortex, Aβ and Tau phosphorylation of cerebral cortex” value with natural aging AD mice is recorded as “significantly decreased”.
